Measured values published in patent US20220296595A1, “CDK INHIBITORS” (QILU REGOR THERAPEUTICS INC., priority 2019, published 2022).
Read-outs that look alike come from different tables or passages of the source.

Key:
T47D breast cancer cells = assay: Anti-proliferation assay in T47D cell (Cyquant, day 6); format: cell-based, human; details: read-out: T47D IC50
Procedure, shortened: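 A ten-point, 3-fold compound series (10 μM down to 0.51 nM) was applied to overnight-settled cells in 10% FBS RPMI 1640, and DNA content was read by CyQuant fluorescence 6 days later. An untreated plate read before dosing served as baseline for subtraction before IC50 fitting.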

CDK4/CyclinD1 = molecular target: T1, CDK4/CyclinD1 (Homo sapiens, UniProt P11802); assay: Assay for inhibition of CDK4/CyclinD1 (Caliper microfluidic kinase assay); format: biochemical
T1 construct: purchased Thermofisher PR8064A
Procedure, shortened: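 IC50 was obtained by 4-parameter sigmoidal fitting after 1 nM CDK4/CyclinD1, 200 μM ATP and 1 μM FL-34 substrate reacted for 3 h at room temperature (pH 7.5 HEPES, 10 mM MgCl2). After EDTA quench, substrate and product were separated and detected on a Caliper microfluidic chip.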

CDK6/CyclinD3 = molecular target: T2, CDK6/CyclinD3 (Homo sapiens, UniProt Q00534); assay: Assay for inhibition of CDK6/CyclinD3 (Caliper microfluidic kinase assay); format: biochemical
T2 construct: purchased Carna 04-107
Procedure, shortened: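 IC50s came from four-parameter dose-response fits of microfluidic substrate/product separation data. Reactions held 2 nM CDK6/CyclinD3, 300 μM ATP and 1 μM 5-FAM peptide FL-34 in pH 7.5 HEPES/MgCl2 buffer, ran 3 hours at room temperature, then were quenched with EDTA.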

[1] = test system: phosphorylation of Retinoblastoma Protein (pRb Ser807/811 or Ser780) in T47D cells; assay: Inhibition of phosphorylation of retinoblastoma protein (pRb) in T47D cell (ELISA); format: cell-based, human
Method: T47D breast cancer cells from American Type Culture Collection (ATCC, HTB-133) were plated at 40,000 cells/well in 96-well plates, and were incubated in RPMI 1640 medium (Gibco, 31800105) with 10% Fetal Bovine Serum (FBS, Biowest, FB-1058). Cells were then allowed to adhere overnight at 37° C., 5% CO2. The following day, compounds were titrated in a 3-fold dilution scheme, and the highest compound concentration tested was […]. After 24 hours incubation with compounds, cells were lysed in ice-cold lysis buffer containing phosphatase inhibitor cocktail and 1 mM PMSF. Cell lysates (50 μL/well) were then transferred to ELISA plates (pRb Ser807/811 ELISA kit, Cell Signaling, 13152 or pRb Ser780 ELISA kit, Cell Signaling, 13016)). Plates were incubated overnight at 4° C., with constant slow speed shaking. After incubation, plates were washed following manufacturer's recommendations, and then 100 μL reconstituted detection antibody was added to each well and incubated for 1 hour at 37° C. After incubation, plates were washed, and then 100 μL reconstituted HRP-linked secondary antibody was added to each well and incubated for 30 mins at 37° C. After incubation, plates were washed. Then, 100 μL TMB substrate was added to each well and incubated for 10 min at 37° C. or 30 min at 25° C. Finally, 100 μL of STOP solution was added to each well and mixed gently for a few seconds. Plates were read on the Envision plate reader (PerkinElmer, 2104-0010) using the 96-well […] mode. IC50 values were calculated using 4 parameter sigmoidal dose-response model of Xlfit5/GraphPad Prism 5 software.

CDK2/CyclinE1 = molecular target: T3, CDK2/CyclinE1 (Homo sapiens, UniProt P24941); assay: Assay for inhibition of CDK2/CyclinE1 (Caliper microfluidic kinase assay); format: biochemical; details: read-out: CDK2 IC50
T3 construct: purchased SignalChem C29-18G
Procedure, shortened: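 IC50 came from 4-parameter fits of substrate-to-product conversion, separated on a Caliper chip after an EDTA stop. Reactions ran 3 hours at room temperature with 100 μM ATP, 5 μM fluorescent FL-18 peptide and 5 nM enzyme in 100 mM HEPES pH 7.5, 10 mM MgCl2.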

[2] = Homo sapiens, T47D, anti-proliferation, T47D cells
[3] = Homo sapiens, T47D, read-out: Phospho T47D Ser807 IC50, pRb Ser807 phosphorylation, T47D cells

T1 sequence (P11802 whole entry): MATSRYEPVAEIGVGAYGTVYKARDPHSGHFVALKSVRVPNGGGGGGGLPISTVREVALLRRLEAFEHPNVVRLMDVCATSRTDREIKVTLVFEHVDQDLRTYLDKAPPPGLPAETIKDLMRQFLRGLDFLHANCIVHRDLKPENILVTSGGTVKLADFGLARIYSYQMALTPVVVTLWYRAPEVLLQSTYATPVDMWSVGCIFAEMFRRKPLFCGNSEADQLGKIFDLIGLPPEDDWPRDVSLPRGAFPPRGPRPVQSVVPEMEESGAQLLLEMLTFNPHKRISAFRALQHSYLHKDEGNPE
T1 sequence (P24385 whole entry partner): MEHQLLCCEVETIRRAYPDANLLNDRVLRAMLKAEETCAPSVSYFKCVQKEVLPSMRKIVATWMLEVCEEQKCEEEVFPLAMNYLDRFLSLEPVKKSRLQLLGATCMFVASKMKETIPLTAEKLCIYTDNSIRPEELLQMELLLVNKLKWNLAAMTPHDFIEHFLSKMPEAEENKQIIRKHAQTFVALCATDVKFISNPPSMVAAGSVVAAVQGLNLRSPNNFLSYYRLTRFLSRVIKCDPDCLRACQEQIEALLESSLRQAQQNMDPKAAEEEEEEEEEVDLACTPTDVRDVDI
T2 sequence (Q00534 whole entry): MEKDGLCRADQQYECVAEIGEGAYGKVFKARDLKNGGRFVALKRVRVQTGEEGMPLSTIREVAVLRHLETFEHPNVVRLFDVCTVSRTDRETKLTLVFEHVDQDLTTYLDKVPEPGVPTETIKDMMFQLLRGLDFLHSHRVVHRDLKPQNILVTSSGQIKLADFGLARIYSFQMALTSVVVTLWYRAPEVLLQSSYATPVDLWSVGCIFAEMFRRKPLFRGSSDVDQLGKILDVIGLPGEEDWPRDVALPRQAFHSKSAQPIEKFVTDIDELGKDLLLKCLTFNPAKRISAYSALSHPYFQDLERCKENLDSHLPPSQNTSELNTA
T2 sequence (P30281 whole entry partner): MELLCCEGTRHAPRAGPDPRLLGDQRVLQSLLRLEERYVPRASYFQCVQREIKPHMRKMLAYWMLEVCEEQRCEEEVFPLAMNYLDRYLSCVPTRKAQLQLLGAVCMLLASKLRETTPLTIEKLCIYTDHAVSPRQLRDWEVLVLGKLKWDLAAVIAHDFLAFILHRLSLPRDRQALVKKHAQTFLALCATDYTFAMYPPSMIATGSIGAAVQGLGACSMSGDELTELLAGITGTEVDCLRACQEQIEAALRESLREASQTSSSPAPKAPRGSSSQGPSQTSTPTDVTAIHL

Row | Compound | IC50 (T47D breast cancer cells; [2]) | IC50 (CDK4/CyclinD1; CDK4/CyclinD1, 200 μM ATP) | IC50 (CDK6/CyclinD3; CDK6/CyclinD3, 300 μM ATP) | IC50 [1, 3] | IC50 (CDK2/CyclinE1; CDK2/CyclinE1, 100 μM ATP) | IC50 (T47D breast cancer cells; anti-proliferation, T47D cells) | IC50 ([1]; read-out: Phospho T47D Ser807 IC50, pRb Ser807 phosphorylation, T47D cells) | IC50 (T47D breast cancer cells; Homo sapiens, T47D) | IC50 ([1]; Homo sapiens, T47D, read-out: Phospho T47D Ser807 IC50) | IC50 (CDK4/CyclinD1; CDK4/CyclinD1) | IC50 (CDK6/CyclinD3; CDK6/CyclinD3) | IC50 (CDK2/CyclinE1; CDK2/CyclinE1)
1 | COc1nc(-c2nc(Nc3ccc(N4CCC(N(C)C)CC4=O)cn3)ncc2F)cc2c1nc(C)n2C(C)C (single isomer, unassigned) [Example 62-1, 4-(dimethylamino)-1-[6-[[5-fluoro-4-(1-isopropyl-4-methoxy-2-methyl-imidazo[4,5-c]pyridin-6-yl)pyrimidin-2-yl]amino]-3-pyridyl]piperidin-2-one] | 0.1 to 0.5 µM | < 0.01 µM | 0.01 to 0.1 µM | 0.1 to 0.5 µM | > 1 µM | – | – | – | – | – | – | –
2 | COc1nc(-c2nc(Nc3ccc(N4CCC(N(C)C)CC4=O)cn3)ncc2F)cc2c1nc(C)n2C(C)C (single isomer, unassigned) [Example 62-2, 4-(dimethylamino)-1-[6-[[5-fluoro-4-(1-isopropyl-4-methoxy-2-methyl-imidazo[4,5-c]pyridin-6-yl)pyrimidin-2-yl]amino]-3-pyridyl]piperidin-2-one] | – | < 0.01 µM | 0.01 to 0.1 µM | – | > 1 µM | < 0.1 µM | < 0.1 µM | – | – | – | – | –
3 | CNC1CCN(c2ccc(Nc3nccc(-c4ccn5ncc(C(C)C)c5c4)n3)nc2)C(=O)C1 (single isomer, unassigned) [Synthetic Example 205, 1-[6-[[4-(3-isopropylpyrazolo[1,5-a]pyridin-5-yl)pyrimidin-2-yl]amino]-3-pyridyl]-4-(methylamino)piperidin-2-one] | < 0.1 µM | < 0.01 µM | < 0.01 µM | < 0.1 µM | < 0.01 µM | – | – | – | – | – | – | –
4 | CC(C)c1cnn2ccc(-c3ccnc(Nc4ccc(N5CCCNC5=O)cn4)n3)cc12 [Synthetic Example 1] | < 0.1 µM | < 0.01 µM | 0.01 to 0.1 µM | < 0.1 µM | 0.1 to 1 µM | – | – | – | – | – | – | –
5 | CC(C)c1cnn2ccc(-c3nc(Nc4ccc(N5CCNCC5=O)cn4)ncc3F)cc12 [Synthetic Example 29] | < 0.1 µM | < 0.01 µM | 0.01 to 0.1 µM | < 0.1 µM | 0.01 to 0.1 µM | – | – | – | – | – | – | –
6 | CC(C)c1cnn2ccc(-c3ccnc(Nc4ccc(N5CC(N(C)C)CC5=O)cn4)n3)cc12 (stereo not drawn) [Synthetic Example 39] | < 0.1 µM | < 0.01 µM | 0.01 to 0.1 µM | < 0.1 µM | 0.01 to 0.1 µM | – | – | – | – | – | – | –
7 | CC(C)c1cnn2ccc(-c3ccnc(Nc4ccc(N5CCN(C6CNC6)CC5=O)cn4)n3)cc12 [Synthetic Example 40] | – | < 0.01 µM | 0.01 to 0.1 µM | – | 0.01 to 0.1 µM | – | – | < 0.1 µM | < 0.1 µM | – | – | –
8 | CC(C)c1cnn2ccc(-c3nc(Nc4ccc(N5CCN(C6COC6)CCC5=O)cn4)ncc3F)cc12 [Synthetic Example 43] | < 0.1 µM | < 0.01 µM | 0.01 to 0.1 µM | < 0.1 µM | 0.01 to 0.1 µM | – | – | – | – | – | – | –
9 | CC(C)n1cnc2c1CN(c1ccnc(Nc3ccc(N4CCOCC4=O)cn3)n1)CC2 [Synthetic Example 57] | 0.1 to 0.5 µM | < 0.01 µM | 0.1 to 1 µM | < 0.1 µM | 0.01 to 0.1 µM | – | – | – | – | – | – | –
10 | CC1(C)COc2c(F)cc(-c3ccnc(Nc4ccc(N5CCNCC5=O)cn4)n3)cc21 [Synthetic Example 59] | < 0.1 µM | < 0.01 µM | 0.01 to 0.1 µM | < 0.1 µM | 0.01 to 0.1 µM | – | – | – | – | – | – | –
11 | CC(C)n1cnc2c(F)nc(-c3ccnc(Nc4ccc(N5CCOCC5=O)cn4)n3)cc21 [Synthetic Example 61] | < 0.1 µM | < 0.01 µM | 0.01 to 0.1 µM | < 0.1 µM | 0.01 to 0.1 µM | – | – | – | – | – | – | –
12 | COc1nc(-c2nc(Nc3ccc(N4CCC(N(C)C)CC4=O)cn3)ncc2F)cc2c1nc(C)n2C(C)C (stereo not drawn) [Synthetic Example 62, 4-(dimethylamino)-1-[6-[[5-fluoro-4-(1-isopropyl-4-methoxy-2-methyl-imidazo[4,5-c]pyridin-6-yl)pyrimidin-2-yl]amino]-3-pyridyl]piperidin-2-one] | < 0.1 µM | < 0.01 µM | 0.01 to 0.1 µM | < 0.1 µM | > 1 µM | – | – | – | – | – | – | –
13 | COc1nc(-c2nc(Nc3ccc(N4CCNCC4)cn3)ncc2F)cc2c1nc(C)n2C(C)C [Synthetic Example 106] | 0.1 to 0.5 µM | < 0.01 µM | 0.01 to 0.1 µM | < 0.1 µM | > 1 µM | – | – | – | – | – | – | –
14 | COc1nc(-c2nc(Nc3ccc(N4CCN(S(C)(=O)=O)CC4=O)cn3)ncc2F)cc2c1nc(C)n2C(C)C [Synthetic Example 127] | 0.1 to 0.5 µM | < 0.01 µM | 0.01 to 0.1 µM | 0.1 to 0.5 µM | 0.1 to 1 µM | – | – | – | – | – | – | –
15 | CCN1CCN(c2ccc(Nc3ncc(F)c(-c4cc5c(nc(C)n5C(C)C)c(OC)n4)n3)nc2)C(=O)C1 [Synthetic Example 128] | – | < 0.01 µM | 0.01 to 0.1 µM | < 0.1 µM | > 1 µM | – | – | 0.1 to 0.5 µM | – | – | – | –
16 | CN(C)C1CCN(c2ccc(Nc3nccc(-c4ccn5ncc(C(C)(C)C)c5c4)n3)nc2)C(=O)C1 (stereo not drawn) [Synthetic Example 175] | < 0.1 µM | < 0.01 µM | < 0.01 µM | < 0.1 µM | < 0.01 µM | – | – | – | – | – | – | –
17 | CCN1CCN(Cc2ccc(Nc3ncc(F)c(-c4cc(C)n5ncc(C(C)C)c5c4)n3)nc2)CC1 [compound 5] | > 1 µM | 0.01 to 0.1 µM | 0.1 to 1 µM | > 1 µM | – | – | – | – | – | – | – | –
18 | COc1nc(-c2nc(Nc3ccc(N4CCN(C5CCOCC5)CC4=O)cn3)ncc2F)cc2c1nc(C)n2C(C)C [compound 136] | – | < 0.01 µM | 0.01 to 0.1 µM | 0.1 to 0.5 µM | > 1 µM | – | – | – | – | – | – | –
19 | COc1nc(-c2ccnc(Nc3ccc(N4CCN(C5COC5)CC4=O)cn3)n2)cc2c1ncn2C(C)C [compound 137] | – | < 0.01 µM | 0.01 to 0.1 µM | < 0.1 µM | 0.1 to 1 µM | – | – | – | – | – | – | –
20 | CC(C)c1cnn2ccc(-c3ccnc(Nc4ccc(C(=O)N5CCC5)cc4)n3)cc12 [compound 169] | – | < 0.01 µM | 0.01 to 0.1 µM | < 0.1 µM | < 0.01 µM | – | – | – | – | – | – | –
21 | CC(C)(C)c1cnn2ccc(-c3ccnc(Nc4ccc(N5CCCC(N)C5=O)cc4)n3)cc12 (stereo not drawn) [compound 218] | – | < 0.01 µM | < 0.01 µM | < 0.1 µM | < 0.01 µM | – | – | – | – | – | – | –
22 | CN(C)C1CCCN(c2ccc(Nc3nccc(-c4cc(F)c5c(c4)C(C)(C)CO5)n3)nc2)C1=O (stereo not drawn) [compound 261] | – | < 0.01 µM | 0.01 to 0.1 µM | < 0.1 µM | > 1 µM | – | – | – | – | – | – | –
23 | CC(C)n1cnc2c(F)nc(-c3ccnc(Nc4ccc(N5CCC(C)(N)CC5=O)cn4)n3)cc21 (stereo not drawn) [compound 271] | – | < 0.01 µM | < 0.01 µM | < 0.1 µM | 0.01 to 0.1 µM | – | – | – | – | – | – | –
24 | CC(C)n1cnc2c(F)nc(-c3ccnc(Nc4ccc(N5CCCNC5=O)cn4)n3)cc21 [compound 275] | – | < 0.01 µM | < 0.01 µM | < 0.1 µM | 0.1 to 1 µM | – | – | – | – | – | – | –
25 | CCN1CCN(c2ccc(Nc3nccc(-c4cc5c(ncn5C(C)C)c(F)n4)n3)nc2)CC1 [compound 289] | – | < 0.01 µM | < 0.01 µM | < 0.1 µM | 0.1 to 1 µM | – | – | – | – | – | – | –
26 | COc1nc(-c2ccnc(Nc3ccc(N4CCC(C)(N)CC4=O)cn3)n2)cc2c1ncn2C(C)C (stereo not drawn) [compound 313] | – | – | – | < 0.1 µM | – | – | – | – | – | 0.01 to 0.1 µM | < 0.01 µM | 0.1 to 1 µM
